This passage reports LogP and chromatographic logP results from patent EP2540163A1, “Nematocide N-cyclopropyl-sulfonylamide derivatives” (Bayer CropScience AG, priority 2011, dated 2013).

One data set is described as follows: logP by HPLC on reversed-phase column (C 18), EEC Directive 79/831 Annex V.A8, Method B (0.1% aqueous formic acid / acetonitrile, 40°C). The format is physicochemical. To be noted: LogP method B: HPLC reversed-phase C 18, 40°C, 0.1% aqueous formic acid / acetonitrile. How it is done:
Calibration was carried out using unbranched alkan-2-ones (having 3 to 16 carbon atoms) with known logP values (determination of the logP values by the retention times using linear interpolation between two successive alkanones).
For the compound `CCCCCc1ccc(Oc2ccc(S(=O)(=O)N(C(=O)c3cn(C)nc3OCC)C3CC3)c(Br)c2)cc1` [compound 561], the LogP was 5,8.

The same data set, now with this note: c18 reversed-phase hplc; LogP method B: HPLC reversed-phase C 18, 40°C, 0.1% aqueous formic acid / acetonitrile.
In general, chromatographic logP refers to a lipophilicity value derived from retention on a column. Read a low chromatographic logP as lower lipophilicity. As for `CCc1nn(C)c(F)c1C(=O)N(C1CC1)S(=O)(=O)c1cc(Cl)cc(Cl)c1` [compound 376], the chromatographic logP amounted to 3.9.

`CCc1nn(C)c(F)c1C(=O)N(C1CC1)S(=O)(=O)c1c(Cl)cc(C(F)(F)F)cc1Cl` [compound 387] gave a chromatographic logP of 3.8.

For `CCOc1nn(C)cc1C(=O)N(C1CC1)S(=O)(=O)c1ccc(Oc2ccccc2)c(Cl)c1` [compound 533], the chromatographic logP was determined as 3.9.

In turn, `Cn1nc(C(F)(F)F)c(C(=O)N(C2CC2)S(=O)(=O)c2c(Cl)cc(Cl)cc2Cl)c1F` [compound 363] gave a chromatographic logP of 3.7.

`CC(C)c1nn(C)c(F)c1C(=O)N(C1CC1)S(=O)(=O)c1cccc(Cl)c1Cl` [compound 93]: the chromatographic logP is 3.6.

For `Cn1nc(C(F)(F)F)c(C(=O)N(C2CC2)S(=O)(=O)c2c(Cl)sc(Cl)c2Br)c1F` [compound 436], the chromatographic logP amounted to 3.9.

As to `Cn1nc(C(F)F)c(C(=O)N(C2CC2)S(=O)(=O)c2ccccc2Cl)c1F` [compound 103], the chromatographic logP was found to be 2.8.

`CCOc1nn(C)cc1C(=O)N(C1CC1)S(=O)(=O)c1ccc(Oc2ccc(Br)cc2)c(Cl)c1` [compound 552] yielded a chromatographic logP of 4.5.

Compound `Cn1nc(C(F)(F)F)c(C(=O)N(C2CC2)S(=O)(=O)c2ccc(F)cc2Cl)c1F` [compound 362] gave a chromatographic logP of 3.1.

For `CCc1nn(C)c(F)c1C(=O)N(C1CC1)S(=O)(=O)c1c(Cl)cc(Cl)cc1Cl` [compound 379], the chromatographic logP worked out at 3.6.

Consider `Cn1nc(C(F)(F)F)c(C(=O)N(C2CC2)S(=O)(=O)c2c(Cl)cccc2Cl)c1F` [compound 360], for which the chromatographic logP is 3.1.

Turning to `CCOc1nn(C)cc1C(=O)N(C1CC1)S(=O)(=O)c1ccc(Oc2ccc(OC)cc2)cc1Cl` [compound 529], the chromatographic logP was found to be 3.5.

The compound `CCc1nn(C)c(F)c1C(=O)N(C1CC1)S(=O)(=O)c1ccc(Oc2ccc(Cl)cc2)cc1` [compound 391] had a chromatographic logP of 4.2.

The compound `Cc1cc(C(=O)N(C2CC2)S(=O)(=O)c2cccc(Cl)c2Cl)c(C)o1` [compound 5] gave a chromatographic logP of 3.8.

As for `CCOc1nn(C)cc1C(=O)N(C1CC1)S(=O)(=O)c1ccc(Oc2ccc(Cl)cc2Cl)c(Cl)c1` [compound 555], the chromatographic logP turned out to be 4.7.

`Cn1nc(C(F)(F)F)c(C(=O)N(C2CC2)S(=O)(=O)c2ccc(Oc3ncc(C(F)(F)F)cc3Cl)cc2)c1F` [compound 372]: the chromatographic logP is 4.2.

In turn, `Cn1nc(-c2ccccc2)c(C(=O)N(C2CC2)S(=O)(=O)c2cccc(Cl)c2Cl)c1F` [compound 101] came in with a chromatographic logP of 3.7.

Compound `CCOc1nn(C)cc1C(=O)N(C1CC1)S(=O)(=O)c1ccc(Oc2ccc(OC)c(OC)c2)cc1Cl` [compound 527] showed a chromatographic logP of 3.2.

For the compound `CCOc1nn(C)cc1C(=O)N(C1CC1)S(=O)(=O)c1ccc(Oc2cccc(Br)c2)c(Cl)c1` [compound 551], the chromatographic logP came out at 4.5.

`CCOc1nn(C)cc1C(=O)N(C1CC1)S(=O)(=O)c1ccc(Oc2cccc(C(F)(F)F)c2F)c(Cl)c1` [compound 547] displayed a chromatographic logP of 4.3.

`CCOc1nn(C)cc1C(=O)N(C1CC1)S(=O)(=O)c1ccc(Oc2cccc(Br)c2)cc1Cl` [compound 534] returned a chromatographic logP of 3.9.

`CCOc1nn(C)cc1C(=O)N(C1CC1)S(=O)(=O)c1ccc(Oc2cccc(N(C)C)c2)c(Cl)c1` [compound 539] had a chromatographic logP of 4.1.

With `Cc1cnn(C)c1C(=O)N(C1CC1)S(=O)(=O)c1cccc(Cl)c1Cl` [compound 658], the chromatographic logP amounted to 3.1.

As to `COc1nn(C)c(Cl)c1C(=O)N(C1CC1)S(=O)(=O)c1ccc(Oc2ccccc2)cc1` [compound 280], the chromatographic logP was 3.8.

Compound `CCOc1nn(C)cc1C(=O)N(C1CC1)S(=O)(=O)c1ccc(Oc2ccc(Cl)c(C(F)(F)F)c2)c(Cl)c1` [compound 556] returned a chromatographic logP of 4.8.

For the compound `CCOc1nn(C)cc1C(=O)N(C1CC1)S(=O)(=O)c1ccc(Oc2ccc(Br)c(Cl)c2)c(Cl)c1` [compound 558], the chromatographic logP came out at 4.9.

With `COc1nn(C)cc1C(=O)N(C1CC1)S(=O)(=O)c1ccc(Oc2ccc(Cl)c(Cl)c2)cc1Br` [compound 478], the chromatographic logP was 4.2.

`Cc1nn(C)c(Cl)c1S(=O)(=O)N(C(=O)c1c(C(F)(F)F)nn(C)c1F)C1CC1` [compound 443] came in with a chromatographic logP of 2.6.

As for `Cc1cnn(C)c1C(=O)N(C1CC1)S(=O)(=O)c1ccc(Cl)c(Cl)c1Cl` [compound 659], the chromatographic logP is 3.6.

As for `Cn1nc(-c2ccccc2)c(C(=O)N(C2CC2)S(=O)(=O)c2ccc(Cl)c(Cl)c2Cl)c1F` [compound 100], the chromatographic logP stood at 4.3.

Take `CCOc1nn(C)cc1C(=O)N(C1CC1)S(=O)(=O)c1ccc(Oc2ccc(F)c(Cl)c2)c(Cl)c1` [compound 548]: the chromatographic logP stood at 4.4.

For `Cc1nn(C)c(C#N)c1C(=O)N(C1CC1)S(=O)(=O)c1ccc(Cl)c(Cl)c1Cl` [compound 228], the chromatographic logP was 3.9.

With `CCOc1nn(C)cc1C(=O)N(C1CC1)S(=O)(=O)c1ccc(Oc2ccc(F)c(Cl)c2)cc1Cl` [compound 536], the chromatographic logP stood at 4.

On to `Cn1cc(C(=O)N(C2CC2)S(=O)(=O)c2ccc(Cl)c(Cl)c2Cl)c(C(F)(F)F)c1` [compound 37], for which the chromatographic logP was 3.9.

Compound `Cc1nocc1C(=O)N(C1CC1)S(=O)(=O)c1ccc(Cl)c(Cl)c1Cl` [compound 600] displayed a chromatographic logP of 3.6.

Compound `Cc1nn(C)c(Oc2ccc(Cl)cc2)c1C(=O)N(C1CC1)S(=O)(=O)c1ccccc1Cl` [compound 261] registered a chromatographic logP of 3.6.

As to `CCOc1nn(C)cc1C(=O)N(C1CC1)S(=O)(=O)c1ccc(Oc2ccccc2Cl)c(Cl)c1` [compound 537], the chromatographic logP is 4.1.

Compound `Cn1nc(C(F)F)c(C(=O)N(C2CC2)S(=O)(=O)c2ccc(Cl)cc2Cl)c1F` [compound 105] had a chromatographic logP of 3.4.

`COc1nn(C)cc1C(=O)N(C1CC1)S(=O)(=O)c1ccc(Oc2cc(Cl)cc(Cl)c2)cc1Br` [compound 481]: the chromatographic logP was found to be 4.3.

Consider `Cc1nn(C)c(N(C)C)c1C(=O)N(C1CC1)S(=O)(=O)c1ccc(Cl)c(Cl)c1Cl` [compound 229], for which the chromatographic logP came to 3.6.

In turn, `Cc1nn(C)c(C(=O)N(C2CC2)S(=O)(=O)c2cccc(Cl)c2Cl)c1Cl` [compound 586] registered a chromatographic logP of 3.7.

As for `Cc1oncc1C(=O)N(C1CC1)S(=O)(=O)c1ccc(Cl)c(Cl)c1Cl` [compound 604], the chromatographic logP was found to be 2.6.

As to `CCc1nn(C)c(F)c1C(=O)N(C1CC1)S(=O)(=O)c1cc(C(F)(F)F)ccc1Cl` [compound 384], the chromatographic logP is 3.5.

`Cn1nc(C2CC2)c(C(=O)N(C2CC2)S(=O)(=O)c2ccc(Cl)c(Cl)c2Cl)c1Cl` [compound 223] displayed a chromatographic logP of 4.2.

On to `Cn1ncc(I)c1C(=O)N(C1CC1)S(=O)(=O)c1cccc(Cl)c1Cl` [compound 662], for which the chromatographic logP stood at 2.8.

In turn, `CCOc1nn(C)cc1C(=O)N(C1CC1)S(=O)(=O)c1ccc(Oc2ccc(OC)c(OC)c2)c(Cl)c1` [compound 528] registered a chromatographic logP of 3.5.

`O=C(c1cccnc1Cl)N(C1CC1)S(=O)(=O)c1ccc(Cl)c(Cl)c1Cl` [compound 647] displayed a chromatographic logP of 3.7.

`Cc1cc(C(=O)N(C2CC2)S(=O)(=O)c2ccc(Cl)c(Cl)c2Cl)c(C)o1` [compound 6] registered a chromatographic logP of 4.4.

`CC(C)c1nn(C)c(F)c1C(=O)N(C1CC1)S(=O)(=O)c1ccc(C(F)(F)F)cc1Cl` [compound 97] gave a chromatographic logP of 4.

Take `Cn1cc(C(=O)N(C2CC2)S(=O)(=O)c2cccc(Cl)c2Cl)c(C(F)(F)F)c1` [compound 36]: the chromatographic logP is 3.3.

As to `O=C(c1cccnc1Cl)N(C1CC1)S(=O)(=O)c1cccc(Cl)c1Cl` [compound 645], the chromatographic logP amounted to 3.2.

Regarding `Cc1cc(C(=O)N(C2CC2)S(=O)(=O)c2cccc(Cl)c2Cl)nn1C` [compound 74], the chromatographic logP turned out to be 2.7.

`COc1nn(C)cc1C(=O)N(C1CC1)S(=O)(=O)c1ccc(Oc2ccc(Cl)cc2Cl)cc1Br` [compound 477] displayed a chromatographic logP of 4.1.

For `COc1cscc1C(=O)N(C1CC1)S(=O)(=O)c1ccc(Cl)c(Cl)c1Cl` [compound 27], the chromatographic logP was determined as 3.9.

`CCOc1nn(C)cc1C(=O)N(C1CC1)S(=O)(=O)c1ccc(Oc2ccccc2)cc1Cl` [compound 530] returned a chromatographic logP of 3.6.

`CCOc1nn(C)cc1C(=O)N(C1CC1)S(=O)(=O)c1ccc(Oc2cc(Cl)cc(Cl)c2)c(Cl)c1` [compound 559] came in with a chromatographic logP of 5.

In turn, `CC(F)c1nn(C)cc1C(=O)N(C1CC1)S(=O)(=O)c1cccc(Cl)c1Cl` (stereo not shown) [compound 119] displayed a chromatographic logP of 2.8.

With `Cc1nocc1C(=O)N(C1CC1)S(=O)(=O)c1cccc(Cl)c1Cl` [compound 599], the chromatographic logP was 3.

Regarding `COc1c(C(=O)N(C2CC2)S(=O)(=O)c2ccc(Cl)c(Cl)c2Cl)c(C)nn1C` [compound 230], the chromatographic logP was found to be 3.2.

Compound `CCc1nn(C)c(F)c1C(=O)N(C1CC1)S(=O)(=O)c1ccc(Cl)c(Cl)c1` [compound 378] had a chromatographic logP of 3.8.

Regarding `Cn1nc(C2CC2)c(C(=O)N(C2CC2)S(=O)(=O)c2cccc(Cl)c2Cl)c1Cl` [compound 225], the chromatographic logP stood at 4.7.

Take `CCOc1nn(C)cc1C(=O)N(C1CC1)S(=O)(=O)c1ccc(Oc2cccc(OC(F)(F)F)c2)c(Cl)c1` [compound 554]: the chromatographic logP came to 4.5.

Still in this data set, the particulars now being: c18 reversed-phase hplc; LogP method B: HPLC, 40°C, 0.1% aqueous formic acid and acetonitrile, gradient 10% to 90% acetonitrile.
For the compound `COC(=O)C1(N(C(=O)c2c(C(F)(F)F)nn(C)c2F)S(=O)(=O)c2ccc(Cl)c(Cl)c2Cl)CC1` [compound 667], the chromatographic logP was 4.04.
